# Assay results taken from patent US20170280720A1, “ARGININE […] INHIBITORS AND USES THEREOF” (EPIZYME, INC., priority 2014, published 2017).
# Biological target: T1, human PRMT1 (Homo sapiens, UniProt Q99873)
# T1 construct: GST-tagged PRMT1; made in house; host or cells: High Five insect cells (baculovirus, pFastBacI)
# Assay: PRMT1 biochemical assay (3H-SAM Flashplate, peptide substrate)
# Details: read-out: PRMT1_ IC50
# Outline: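 FLAG-tagged full-length human PRMT1 (0.5 nM, GST-tagged, insect-cell expressed) preincubated 30 min at RT with compound, then biotinylated histone H4 36-50 peptide (20 nM) plus 200 nM 3H-SAM and 1.5 uM SAM in Bicine pH 7.6, 2% DMSO. 3H-methylated peptide captured on streptavidin Flashplate; IC50 from 3/4-parameter fit.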
# T1 sequence (Q99873 with tags, fused parts or gaps): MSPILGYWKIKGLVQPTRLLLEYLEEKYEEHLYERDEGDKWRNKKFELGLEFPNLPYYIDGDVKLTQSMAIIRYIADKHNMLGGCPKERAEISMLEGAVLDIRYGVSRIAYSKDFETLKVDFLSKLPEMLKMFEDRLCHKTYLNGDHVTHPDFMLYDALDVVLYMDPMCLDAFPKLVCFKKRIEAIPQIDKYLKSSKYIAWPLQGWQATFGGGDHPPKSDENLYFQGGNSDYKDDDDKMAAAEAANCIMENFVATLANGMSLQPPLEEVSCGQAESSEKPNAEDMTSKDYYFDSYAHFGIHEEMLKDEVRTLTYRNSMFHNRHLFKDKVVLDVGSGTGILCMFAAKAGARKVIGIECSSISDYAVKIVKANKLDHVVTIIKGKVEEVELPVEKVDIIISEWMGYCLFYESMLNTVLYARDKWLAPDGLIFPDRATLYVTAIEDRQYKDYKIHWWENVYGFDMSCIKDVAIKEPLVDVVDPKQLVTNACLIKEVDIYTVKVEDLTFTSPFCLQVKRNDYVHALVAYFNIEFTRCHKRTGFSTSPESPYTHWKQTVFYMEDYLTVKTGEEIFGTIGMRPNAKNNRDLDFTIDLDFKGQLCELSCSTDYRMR
row,IC50 [nM],SMILES
1,97.4,CNCCN(C)Cc1cccc(-c2cc(C(=O)N(C)Cc3ccccc3)c3cnn(C(C)C)c3n2)c1 [Compound 24]
2,89,CNCCN(C)Cc1cccc(-c2cc(C(=O)NCC3CCOCC3)c3cnn(C4CCC4)c3n2)c1 [Compound 21]
3,985,CNCCN(C)Cc1cccc(-c2cc(C(=O)NCc3cnn(C)c3C)c3cnn(C(C)C)c3n2)c1 [Compound 137]
